Holding throughout (format): cell-based
One assay deals with Mel270 UM cell line. Kind of assay: 72 hr CellTiter-Glo cell proliferation assay, Mel270. The following applies: read-out: IC50 single agent activity. How it is done: (§1) Next, luminescence was recorded using the plate reader.
Another assay relates to Mel202 UM cell line. The assay is described as follows: 72 hr CellTiter-Glo cell proliferation assay, Mel202. To be noted: read-out: IC50 single agent activity. How it is done:
as §1

The test system of the next assay is OMM2.5 UM cell line. Kind of assay: 72 hr CellTiter-Glo cell proliferation assay, OMM2.5. To be noted: read-out: IC50 single agent activity. The protocol:
as §1

The subject of the next assay is UM 92.1 cell line. The assay is described as follows: 72 hr CellTiter-Glo cell proliferation assay, 92.1. The following applies: for IC50: 92.1 cell line, 72 hr CTG, read-out: IC50 single agent activity. How it is done: as §1
The percent growth inhibition and excess inhibition were analysed using the Chalice software (CombinatoRx, Cambridge Mass.). […] All remaining points in the grids display results from a combination of the two inhibitors that correspond to the single agent concentrations denoted on the two axes. Data analysis of cell proliferation was performed using Chalice Analyser as described in (Lehar et al. 2009). Excess inhibition was calculated using the Loewe synergy model which measures the effect on growth relative to what would be expected if two drugs behave in a dose additive manner. Positive numbers represent areas of increasing synergy.

The next assay deals with Mel285 UM cell line. The assay is described as follows: 72 hr CellTiter-Glo cell proliferation assay, Mel285. To be noted: read-out: IC50 single agent activity. The protocol:
as §1

Where two headings read alike, the source gives them in different places.

As for `COc1cc2c(cc1OC(C)C)[C@H](c1ccc(Cl)cc1)N(c1ccc(N(C)C[C@H]3CC[C@H](N4CCN(C)C(=O)C4)CC3)cc1)C(=O)C2` [Compound A, (S)-1-(4-Chloro-phenyl)-7-isopropoxy-6-methoxy-2-(4-{methyl-[4-(4-methyl-3-oxo-piperazin-1-yl)-trans-cyclohexylmethyl]-amino}-phenyl)-1,4-dihydro-2H-isoquinolin-3-one], the IC50 in the assay on Mel270 UM cell line (Mel270 cell line, 72 hr CTG) turned out to be 362 nM; in the assay on Mel202 UM cell line (Mel202 cell line, 72 hr CTG), 401 nM; in the assay with OMM2.5 UM cell line (OMM2.5 cell line, 72 hr CTG) it was 2570 nM; with UM 92.1 cell line, 667 nM; in the assay with Mel285 UM cell line (Mel285 cell line, 72 hr CTG), 1260 nM.
Take `COc1ncc(-c2nc3c(n2C(C)C)[C@H](c2ccc(Cl)cc2)N(c2cc(Cl)cn(C)c2=O)C3=O)c(OC)n1` [Compound B, (S)-5-(5-Chloro-1-methyl-2-oxo-1,2-dihydro-pyridin-3-yl)-6-(4-chloro-phenyl)-2-(2,4-dimethoxy-pyrimidin-5-yl)-1-isopropyl-5,6-dihydro-1H-pyrrolo[3,4-d]imidazol-4-one]: the IC50 with Mel270 UM cell line (72 h) turned out to be 34 nM; in the assay with Mel202 UM cell line (Mel202, 72 h) it was 60 nM; with OMM2.5 UM cell line (72 h), 249 nM; in the assay on UM 92.1 cell line, 86 nM; in the assay with Mel285 UM cell line (72 h), 167 nM.
On to `CC1(N)CCN(c2cccnc2NC(=O)c2nc(-c3ncccc3C(F)(F)F)cnc2N)CC1` [Compound D, 3-amino-N-(3-(4-amino-4-methylpiperidin-1-yl)pyridin-2-yl)-6-(3-(trifluoromethyl)pyridin-2-yl)pyrazine-2-carboxamide], for which the “efficacy as single agent compared with the other PKC inhibitor” value in the assay with UM 92.1 cell line (one UM cell line, single agent) is “more effective as a single agent”.

The values above are taken from US20200246331A1, “Pharmaceutical combinations and their use” (Novartis AG, priority 2015, published 2020).
